In US10358453B2, “Antiviral compounds” (priority 2015, dated 2019):
pEC50, pIC50: −log10 of the molar value.

How the values were obtained:
[1] = Cytotoxicity determination (CCK-8, without addition of virus); assay type: cell-based; details: human, HEp-2 cells (uninfected), no virus, Table C = greater than 100 μM, Table D = equal to or less than 100 μM and greater than 10 μM
Experimental: CPE reduction assays are performed as described by Sidwell and Huffman et al., Appl. Microbiol. (1971) 22(5):797-801 with slight modifications. HEp-2 cells (ATCC#, CCL-23) are seeded at a density of 1,500 cells/30 μL/well into the 384-well cell plate(s) (Corning#3701) one day prior to the assay. Compounds are added into 384-well cell plates by Labcyte POD 810 Plate Assembler system. Each of the test compounds is provided to duplicate wells of a 384-well cell plate at final concentrations starting from 100 μM or 1 μM using 1/3 stepwise dilutions for 9 points. Quick-thaw Respiratory Syncytial Virus (RSV) long strain (ATCC#VR-26) stock in a 37° C. water bath. Place on ice until ready to use. Viruses are diluted to the concentration of 100 TCID50/30 μL with medium and 30 μl diluted RSV are added into related wells of 384-well cell plates. For each plate, sixteen wells are set aside as uninfected, untreated cell controls (CC), and nine wells per test plate receive virus only as a control for virus replication (VC). The final DMSO concentration of all wells is 1%. Place the plates at 37° C., 5% CO2 for 5 days.
In order to determine the compound cytotoxicity, in parallel, each of the compounds is applied to duplicate wells in a 384-well cell plate at serial final concentrations starting from 100 μM using ½ stepwise dilutions for 7 points without addition of virus. Incubate the cells at 37° C., 5% CO2 for 5 days. Add 6 μL CCK-8 into each well and incubate in a CO2 incubator at 37° C. for 3-4 h. Read the plates to obtain the optical densities which are used to calculate 50% cytotoxicity concentration (CC50).

[2] = system: RSV subgenomic replicon 395 HeLa and APC126; assay: RSV subgenomic replicon assay (Renilla luciferase); assay type: cell-based; details: RSV replicon cells (395 HeLa 7 days or APC126 3 days), Table G = less than 1 μM, Table H = equal to or higher than 1 μM and less than 50 μM
Text: The RSV subgenomic replicon 395 HeLa and APC126 were licensed from Apath (Brooklyn, N.Y.) and were originally developed by Dr. Mark Meeples of Center for Vaccines & Immunity, the Research Institute at Nationwide Children's Hospital in Columbus, Ohio. To generate subgenomic RSV replicon, three glycoprotein genes, those for SH, G, and F, from a full-length recombinant GFP-expressing (rg) RSV antigenomic cDNA were deleted. In their place, a blasticidin S deaminase (bsd) gene was inserted. Through multiple steps, the RSV replicon was established in HeLa cells (395 Hela) or BHK cells (APC126). Both 395 HeLa and APC126 cells were cultured in Dulbecco's Modified Eagle Medium (DMEM) containing 4500 mg/L D-glucose, L-glutamine, and 110 mg/L sodium pyruvate (Invitrogen, Cat. #11995-040). The medium was further supplemented with 10% (v/v) fetal bovine serum (FBS) (Mediatech, Cat. #35-010-CV), 1% (v/v) penicillin/streptomycin (Mediatech, Cat. #30-002-CI), and 10 μg/mL of Blasticidin (BSD) (Invivogen, Cat. code ant-bl-1). Cells were maintained at 37° C. in a humidified 5% CO2 atmosphere.
Determination of 50% inhibitory concentration (EC50), 90% inhibitory concentration (EC90) and 50% cytotoxic concentration (CC50) in RSV replicon cells were performed by the following procedure. On the first day, 5000 RSV replicon cells per well were plated in a 96-well plate. On the following day, compounds to be tested were solubilized in 100% DMSO to 100X the desired final testing concentration. Each compound was serially diluted (1:3) up to 9 distinct concentrations. Compounds in 100% DMSO were reduced to 10% (v/v) DMSO by diluting 1:10 in cell culture media. A 10 μL sample of the compounds diluted to 10% (v/v) DMSO with cell culture media was used to treat the RSV replicon cells in 96-well format. The final DMSO concentration was 1% (v/v). Cells were incubated with compounds for 7 days (for 395Hela) or 3 days (for APC126) at 37° C. in a 5% CO2 atmosphere. In each assay, positive control that was previously characterized in the RSV replicon assay was included.
The Renilla Luciferase Assay System (Promega, Cat. #E2820) was used to measure anti-RSV replicon activity. Assay plates were set up as stated above. Luminescence was recorded using a Perkin Elmer multilabel counter Victor3V. EC50, the concentration of the drug required for reducing RSV replicon RNA by 50% in relation to the untreated cell control value, was calculated from the plot of percentage reductions of the […] against the drug concentrations using the Microsoft Excel forecast function.

recombinant RSV complex = recombinant RSV complex (Human respiratory syncytial virus A, UniProt P28887); assay: RSV polymerase inhibition assay; assay type: biochemical; details: 10 nM recombinant RSV complex, 2 h at 30° C.; Table E = <1 μM, Table F = <50 μM; read-out: IC50
recombinant RSV complex, sequence (P28887 whole entry): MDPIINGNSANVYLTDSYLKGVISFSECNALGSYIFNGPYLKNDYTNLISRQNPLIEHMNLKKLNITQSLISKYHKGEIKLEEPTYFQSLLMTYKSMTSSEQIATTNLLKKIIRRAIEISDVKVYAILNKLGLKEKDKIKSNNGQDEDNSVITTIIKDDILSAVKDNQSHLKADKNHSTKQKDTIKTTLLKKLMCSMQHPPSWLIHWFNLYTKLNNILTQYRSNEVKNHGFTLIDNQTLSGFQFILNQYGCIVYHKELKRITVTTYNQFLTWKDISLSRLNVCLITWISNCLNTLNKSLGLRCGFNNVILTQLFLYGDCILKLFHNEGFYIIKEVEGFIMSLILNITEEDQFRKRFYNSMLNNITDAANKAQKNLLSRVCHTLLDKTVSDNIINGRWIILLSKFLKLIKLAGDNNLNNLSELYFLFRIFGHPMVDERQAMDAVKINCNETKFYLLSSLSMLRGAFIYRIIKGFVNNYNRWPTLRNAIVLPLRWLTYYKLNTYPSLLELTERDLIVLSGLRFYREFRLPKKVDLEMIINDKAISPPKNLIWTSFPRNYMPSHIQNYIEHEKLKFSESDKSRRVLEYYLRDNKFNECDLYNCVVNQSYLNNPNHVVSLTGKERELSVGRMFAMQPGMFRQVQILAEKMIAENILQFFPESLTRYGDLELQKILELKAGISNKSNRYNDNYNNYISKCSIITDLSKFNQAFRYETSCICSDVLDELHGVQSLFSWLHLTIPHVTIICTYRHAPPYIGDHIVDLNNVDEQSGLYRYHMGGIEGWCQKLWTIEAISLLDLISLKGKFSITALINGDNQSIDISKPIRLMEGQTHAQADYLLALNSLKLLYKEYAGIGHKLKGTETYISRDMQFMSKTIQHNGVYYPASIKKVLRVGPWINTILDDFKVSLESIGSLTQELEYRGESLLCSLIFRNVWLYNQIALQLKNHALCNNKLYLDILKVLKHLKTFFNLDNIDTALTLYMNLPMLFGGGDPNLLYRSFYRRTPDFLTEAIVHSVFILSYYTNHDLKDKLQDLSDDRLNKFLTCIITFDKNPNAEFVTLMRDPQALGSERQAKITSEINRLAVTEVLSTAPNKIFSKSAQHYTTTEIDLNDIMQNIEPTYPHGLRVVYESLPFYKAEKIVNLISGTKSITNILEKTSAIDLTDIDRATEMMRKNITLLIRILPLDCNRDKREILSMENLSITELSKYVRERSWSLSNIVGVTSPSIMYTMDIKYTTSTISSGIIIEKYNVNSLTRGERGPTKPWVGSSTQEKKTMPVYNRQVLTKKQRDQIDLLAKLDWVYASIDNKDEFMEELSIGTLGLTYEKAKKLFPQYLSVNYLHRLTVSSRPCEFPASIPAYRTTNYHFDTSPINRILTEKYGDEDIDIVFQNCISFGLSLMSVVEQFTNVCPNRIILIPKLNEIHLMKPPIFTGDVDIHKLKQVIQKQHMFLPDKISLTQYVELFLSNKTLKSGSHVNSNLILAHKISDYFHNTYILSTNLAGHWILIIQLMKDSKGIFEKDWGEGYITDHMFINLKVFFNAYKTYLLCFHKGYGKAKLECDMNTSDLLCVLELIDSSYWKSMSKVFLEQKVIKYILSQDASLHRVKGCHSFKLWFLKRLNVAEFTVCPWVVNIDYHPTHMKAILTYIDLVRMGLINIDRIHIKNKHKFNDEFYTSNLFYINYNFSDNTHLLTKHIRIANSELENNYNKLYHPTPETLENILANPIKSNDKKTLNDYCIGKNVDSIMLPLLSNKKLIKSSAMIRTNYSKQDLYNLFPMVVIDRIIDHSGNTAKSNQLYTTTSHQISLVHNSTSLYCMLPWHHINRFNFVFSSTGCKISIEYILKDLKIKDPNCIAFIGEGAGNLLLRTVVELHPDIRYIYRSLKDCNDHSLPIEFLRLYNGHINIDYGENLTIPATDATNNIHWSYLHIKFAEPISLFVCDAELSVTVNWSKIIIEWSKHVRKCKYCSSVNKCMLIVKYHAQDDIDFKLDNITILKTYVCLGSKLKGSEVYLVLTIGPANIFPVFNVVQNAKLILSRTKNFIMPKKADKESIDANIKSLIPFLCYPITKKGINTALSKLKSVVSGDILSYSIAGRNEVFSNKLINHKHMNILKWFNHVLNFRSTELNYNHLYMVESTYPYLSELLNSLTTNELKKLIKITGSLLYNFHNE
recombinant RSV complex, sequence (P03421 whole entry, further chain): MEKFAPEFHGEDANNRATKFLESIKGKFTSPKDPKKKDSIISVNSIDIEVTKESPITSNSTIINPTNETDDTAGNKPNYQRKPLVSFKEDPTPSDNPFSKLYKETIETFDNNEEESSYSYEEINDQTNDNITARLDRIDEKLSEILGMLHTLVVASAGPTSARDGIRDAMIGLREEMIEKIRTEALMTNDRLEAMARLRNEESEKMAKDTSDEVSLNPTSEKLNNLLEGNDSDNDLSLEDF
Experimental: Standard RSV polymerase assays were conducted in the presence of 10 nM recombinant RSV complex in a reaction buffer containing Tris-HCl pH7.5, 6 mM MgCl2, and other additives and substrates including RNA oligonucleotides and radionucleotides. Standard reactions were incubated in 96-well plate format for 2 h at 30° C., in the presence of increasing concentration of inhibitor. The reaction was stopped with 90 μL of 0.1M EDTA, and the reaction product was transferred to a “reading” 96-well plate. After washing of the plate, radiolabeled RNA products were detected according to standard procedures with a Trilux Topcount scintillation counter. The compound concentration at which the enzyme-catalyzed rate was reduced by 50% (IC50) was calculated by fitting the data to a non-linear regression (sigmoidal).

[3] = human respiratory syncytial virus

## COc1cc(C(=O)NC[C@@](O)(c2cc3c(c(-c4ccc(F)cc4)n2)OC[C@@]3(C)NC(C)=N)C(F)(F)F)ccc1OC[C@@H](C)O [Compound 130]
[1]
  CC50 at 5 days: > 100000 nM
[2]; [3]
  pEC50: > 6.00
Recombinant RSV complex
  pIC50: > 6.00

## CC(C)(N)c1cc(-c2ccc(F)cc2)nc(C(O)(CNC(=O)c2ccc(OCCO)c(OC3CC3)c2)C(F)(F)F)c1 (stereo not drawn) [Compound 34]
[1]
  CC50 at 5 days: 10000 to 100000 nM
[2]; [3]
  pEC50: > 6.00
Recombinant RSV complex
  pIC50: > 6.00

## C[C@@]1(N)COc2c1cc([C@@](O)(CNC(=O)c1ccc(OC3CC3)c(OCCO)c1)C(F)(F)F)nc2-c1ccc(F)cc1 [Compound 60]
[1]
  CC50 at 5 days: 10000 to 100000 nM
[2]; [3]
  pEC50: > 6.00
Recombinant RSV complex
  pIC50: > 6.00

## COc1cc(C(=O)NCC(O)(c2cc(C(C)(N)C3CC3)cc(-c3ccc(F)cc3)n2)C(F)(F)F)ccc1OC[C@@H](C)O (stereo partly drawn) [Compound 88]
[1]
  CC50 at 5 days: 10000 to 100000 nM
[2]; [3]
  pEC50: > 6.00
Recombinant RSV complex
  pIC50: > 6.00

## CC1(N)COc2c1cc(C(O)(CNC(=O)c1cnc(OCCO)cc1O)C(F)(F)F)nc2-c1ccc(F)cc1 (stereo not drawn) [Compound 46]
[1]
  CC50 at 5 days: > 100000 nM

## COc1ccc(C(=O)NCC(O)(c2cc3c(c(-c4ccc(F)cc4)n2)OCC3(C)N)C(F)(F)F)cc1OC1CC1 (stereo not drawn) [Compound 23]
[1]
  CC50 at 5 days: 10000 to 100000 nM
[2]; [3]
  pEC50: > 6.00
Recombinant RSV complex
  pIC50: > 6.00

## COc1ccc(C(=O)NCC(O)(c2cc(C(C)(C)N)cc(-c3ccc(F)cc3)n2)C(F)(F)F)cc1OC[C@@H](C)O (stereo partly drawn) [Compound 39]
[1]
  CC50 at 5 days: 10000 to 100000 nM
[2]; [3]
  pEC50: > 6.00
Recombinant RSV complex
  pIC50: > 6.00

## COc1cc(C(=O)NC[C@@](O)(c2cc3c(c(-c4ccc(F)cc4)n2)OC[C@@]3(C)N)C(F)(F)F)ncc1OCCO [Compound 77]
Recombinant RSV complex
  pIC50: > 6.00

## CC[C@]1(N)COc2c1cc([C@](O)(CNC(=O)c1ccc(OC[C@@H](C)O)c(OC)c1)C(F)(F)F)nc2-c1ccc(F)cc1 [Compound 133]
Recombinant RSV complex
  pIC50: > 6.00

## CC(C)(N)c1cc(-c2ccc(F)cc2)nc([C@](O)(CNC(=O)c2ccc(OC3CC3)c(OCCO)c2)C(F)(F)F)c1 [Compound 58]
Recombinant RSV complex
  pIC50: > 6.00

## CC1(N)COc2c1cc(C(O)(CNC(=O)c1cc3c(c(OC4CC4)c1)OC(=O)NC3)C(F)(F)F)nc2-c1ccc(F)cc1 (stereo not drawn) [Compound 32]
Recombinant RSV complex
  pIC50: > 6.00

## COc1cc(C(=O)NC[C@@](O)(c2cc3c(c(-c4ccc(F)cc4)n2)OC[C@@]3(C)N)C(F)(F)F)cc2c1NCCC2 [Compound 96]
[2]; [3]
  pEC50: > 6.00
Recombinant RSV complex
  pIC50: > 6.00

## COc1ccc(C(=O)NCC(N)(c2cc(C(C)(C)N)cc(-c3ccc(F)cc3)n2)C(F)(F)F)cc1OCCO (stereo not drawn) [Compound 42]
Recombinant RSV complex
  pIC50: > 6.00

## C[C@@]1(N)CNc2c1cc([C@](O)(CNC(=O)c1ccc(OC3CC3)c(OC3CC3)c1)C(F)(F)F)nc2-c1ccc(F)cc1 [Compound 126]
[2]
  pEC50: > 6.00
Recombinant RSV complex
  pIC50: > 6.00

## COc1cc(C(=O)NCC(O)(c2cc3c(c(-c4ccc(F)cc4)n2)OCC3(C)N)C(F)(F)F)ccc1C#CCO (stereo not drawn) [Compound 28]
[2]; [3]
  pEC50: > 6.00
Recombinant RSV complex
  pIC50: > 6.00

## C[C@@]1(N)COc2c1cc([C@](O)(CNC(=O)c1ccc(Cl)s1)C(F)(F)F)nc2-c1ccc(F)cc1 [Compound 110]
[1]
  CC50 at 5 days: 10000 to 100000 nM

## COc1cc(C(=O)NC[C@@](O)(c2cc3c(C)c[nH]c3c(-c3ccc(F)cc3)n2)C(F)(F)F)ccc1OCCO [Compound 111]
[1]
  CC50 at 5 days: 10000 to 100000 nM
Recombinant RSV complex
  pIC50: > 6.00
